Experimental findings from patent US9546152B2 (MERCK SHARP & DOHME CORP., priority 2012, dated 2017) are described below.

Assay [1] has as its target T1, human orexin-2 receptor (Homo sapiens (Human), UniProt O43614). Description: FLIPR Ca2+ Flux Assay, orexin-2 receptor. The following applies: read-out: hOX2R FLIPR IC50. It is filed as cell-based. Put shortly: (§1)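 Antagonism read as peak Ca2+ fluorescence (FLIPR, 1 s intervals over 5 min) relative to the 70 pM Ala-6,12 orexin-A response without antagonist. Cells: CHO expressing rat OX1R or human OX2R, Fluo-4AM-loaded; HBSS/20 mM HEPES/0.1% BSA/2.5 mM probenecid, pH 7.4.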

For assay [2], the target named is orexin-1 receptor (hOX1R) (Rattus norvegicus, UniProt P56718). Description: radioligand binding assay, orexin-1 receptor. The following applies: membranes prepared from CHO cells expressing the OX1 receptor; read-out: hOX1R BIND hKi. On the procedure: In a typical experiment the OX1 and OX2 receptor antagonistic activity of the compounds of the present invention was determined in accordance with the following experimental method. For intracellular calcium measurements, Chinese hamster ovary (CHO) cells expressing the rat orexin-1 receptor or the human orexin-2 receptor, are grown in Iscove's modified DMEM containing 2 mM L-glutamine, […], 1% hypoxanthine-thymidine supplement, 100 U/ml penicillin, 100 μg/ml streptomycin and 10% heat-inactivated fetal calf serum (FCS). The cells are seeded at 20,000 cells/well into Becton-Dickinson black 384-well clear bottom sterile plates coated with poly-D-lysine. […] Within the Fluorescent Imaging Plate Reader (FLIPR, Molecular Devices), test compounds are added to the plate in a volume of 25 μl, incubated for 5 min and finally 25 μl of agonist is added. Fluorescence is measured for each well at 1 second intervals for 5 minutes and the height of each fluorescence peak is compared to the height of the fluorescence peak induced by 70 pM Ala-6,12 orexin-A with buffer in place of antagonist. […] Alternatively, compound potency can be assessed by a radioligand binding assay (described in Bergman et. al. Bioorg. Med. Chem. Lett. 2008, 18, 1425-1430) in which the inhibition constant (Ki) is determined in membranes prepared from CHO cells expressing either the OX1 or OX2 receptor. […]
orexin-1 receptor (hOX1R), sequence (P56718 whole entry, looked up): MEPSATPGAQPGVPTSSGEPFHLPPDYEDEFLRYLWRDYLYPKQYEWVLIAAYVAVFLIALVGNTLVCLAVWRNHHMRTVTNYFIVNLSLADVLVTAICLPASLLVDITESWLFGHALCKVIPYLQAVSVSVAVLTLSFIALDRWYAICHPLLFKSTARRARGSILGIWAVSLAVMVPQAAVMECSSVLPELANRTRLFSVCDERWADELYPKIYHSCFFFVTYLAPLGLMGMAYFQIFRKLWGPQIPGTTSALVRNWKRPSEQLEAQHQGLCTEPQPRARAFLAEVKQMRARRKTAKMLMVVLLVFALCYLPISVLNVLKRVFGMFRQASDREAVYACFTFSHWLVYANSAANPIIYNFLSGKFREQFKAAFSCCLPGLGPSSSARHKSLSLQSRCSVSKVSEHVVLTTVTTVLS

The target of the next assay is rat orexin-1 receptor (Rattus norvegicus (Rat), UniProt P56718). Description: FLIPR Ca2+ Flux Assay, orexin-1 receptor. Format: cell-based. The following applies: read-out: hOX1R FLIPR IC50. Put shortly:
as §1

In assay [3] the target is T1, human orexin-2 receptor. Put plainly: radioligand binding assay, orexin-2 receptor. The following applies: read-out: hOX2R BIND hKi.
The mark [4] stands for this setting: CHO cells expressing the human orexin-2 receptor, agonist 70 pM Ala-6,12 human orexin-A.
Setting [5] is: CHO cells expressing the rat orexin-1 receptor, agonist 70 pM Ala-6,12 human orexin-A.
Setting [6] is: membranes prepared from CHO cells expressing the OX2 receptor.

Read-outs that look alike come from different tables or passages of the source.

rat orexin-1 receptor, sequence (P56718 whole entry): as the sequence (P56718 whole entry, looked up) above
T1 sequence (O43614 whole entry): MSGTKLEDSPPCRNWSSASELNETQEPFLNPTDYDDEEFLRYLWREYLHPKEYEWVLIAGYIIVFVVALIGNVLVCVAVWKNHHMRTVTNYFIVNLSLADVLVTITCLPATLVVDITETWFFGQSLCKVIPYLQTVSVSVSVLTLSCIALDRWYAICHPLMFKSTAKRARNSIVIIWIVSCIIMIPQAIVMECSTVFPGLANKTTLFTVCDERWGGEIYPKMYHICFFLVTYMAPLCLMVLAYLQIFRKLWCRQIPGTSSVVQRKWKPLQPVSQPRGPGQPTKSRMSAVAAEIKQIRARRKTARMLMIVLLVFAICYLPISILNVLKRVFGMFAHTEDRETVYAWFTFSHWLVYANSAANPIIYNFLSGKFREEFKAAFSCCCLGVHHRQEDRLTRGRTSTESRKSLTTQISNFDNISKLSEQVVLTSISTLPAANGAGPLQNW

`COc1c(C#N)ccnc1O[C@@H]1CC[C@@H](C)N(C(=O)c2cccc(F)c2-c2ncccn2)C1` [Example 109]: the concentration for half-maximal inhibition (IC50) on human orexin-2 receptor [1] is 26 nM; on rat orexin-1 receptor, 2850 nM. For the same molecule, the Ki in assay [2] was determined as 482 nM; on human orexin-2 receptor [3] it was 1.1 nM.

As to `Cc1ccc(C(=O)N2C[C@H](Oc3nccc(C#N)c3C)CC[C@H]2C)c(-n2nccn2)c1` [Example 8, 3-methyl-2-{[(3R,6R)-6-methyl-1-{[4-methyl-2-(2H-1,2,3-triazol-2-yl)phenyl]carbonyl}piperidin-3-yl]oxy}pyridine-4-carbonitrile], the values for the IC50 on human orexin-2 receptor [1] (setting [4]) and on rat orexin-1 receptor (setting [5]) were 11 nM and 861 nM, respectively. Further, the Ki at human orexin-2 receptor [3] (setting [6]) was 0.6 nM.

For the molecule `Cc1c(C#N)ccnc1O[C@@H]1CC[C@@H](C)N(C(=O)c2sccc2-c2cscn2)C1` [Example 38, 3-methyl-2-{[(3R,6R)-6-methyl-1-{[3-(1,3-thiazol-4-yl)thiophen-2-yl]carbonyl}piperidin-3-yl]oxy}pyridine-4-carbonitrile], the concentration for half-maximal inhibition (IC50) worked out at 11 nM at human orexin-2 receptor [1] (setting [4]) and 1640 nM at rat orexin-1 receptor (setting [5]). The Ki on human orexin-2 receptor [3] (setting [6]) amounted to 0.9 nM.

`Cc1c(C#N)ccnc1O[C@@H]1CC[C@@H](C)N(C(=O)c2cnccc2-n2nccn2)C1` [Example 10, 3-methyl-2-{[(3R,6R)-6-methyl-1-{[4-(2H-1,2,3-triazol-2-yl)pyridin-3-yl]carbonyl}piperidin-3-yl]oxy}pyridine-4-carbonitrile]: the figures for the IC50 on human orexin-2 receptor [1] (setting [4]) and on rat orexin-1 receptor (setting [5]) were 55 nM and 7070 nM, respectively. Moreover, on human orexin-2 receptor [3] (setting [6]), the Ki came to 8.1 nM.

Consider `CSc1c(C#N)ccnc1O[C@@H]1CC[C@@H](C)N(C(=O)c2ccccc2-n2nccn2)C1` [Example 95, 3-(Methylsulfanyl)-2-{[(3R,6R)-6-methyl-1-{[2-(2H-1,2,3-triazol-2-yl)phenyl]carbonyl}piperidin-3-yl]oxy}pyridine-4-carbonitrile], for which the IC50 was 6 nM at human orexin-2 receptor [1] (setting [4]) and 306 nM at rat orexin-1 receptor (setting [5]). The Ki on human orexin-2 receptor [3] (setting [6]) was 0.1 nM.
